Columns and labels:
human mGluR2 (hmGluR2) = molecular target: T1, human mGluR2 (hmGluR2) (Homo sapiens, UniProt Q14416); assay: Ca++ functional assay, human mGluR2 transiently over-expressed in HEK-293 cells (agonist and negative allosteric modulator modes); format: cell-based; conditions: glutamate at EC80, intracellular calcium (Fluo4AM), read-out: hmGluR2 negative allosteric modulator activity IC50
T1 construct: expressed in transfected cells; host or cells: HEK-293 cells, transient co-transfection by electroporation
T1 sequence (Q14416 19-872): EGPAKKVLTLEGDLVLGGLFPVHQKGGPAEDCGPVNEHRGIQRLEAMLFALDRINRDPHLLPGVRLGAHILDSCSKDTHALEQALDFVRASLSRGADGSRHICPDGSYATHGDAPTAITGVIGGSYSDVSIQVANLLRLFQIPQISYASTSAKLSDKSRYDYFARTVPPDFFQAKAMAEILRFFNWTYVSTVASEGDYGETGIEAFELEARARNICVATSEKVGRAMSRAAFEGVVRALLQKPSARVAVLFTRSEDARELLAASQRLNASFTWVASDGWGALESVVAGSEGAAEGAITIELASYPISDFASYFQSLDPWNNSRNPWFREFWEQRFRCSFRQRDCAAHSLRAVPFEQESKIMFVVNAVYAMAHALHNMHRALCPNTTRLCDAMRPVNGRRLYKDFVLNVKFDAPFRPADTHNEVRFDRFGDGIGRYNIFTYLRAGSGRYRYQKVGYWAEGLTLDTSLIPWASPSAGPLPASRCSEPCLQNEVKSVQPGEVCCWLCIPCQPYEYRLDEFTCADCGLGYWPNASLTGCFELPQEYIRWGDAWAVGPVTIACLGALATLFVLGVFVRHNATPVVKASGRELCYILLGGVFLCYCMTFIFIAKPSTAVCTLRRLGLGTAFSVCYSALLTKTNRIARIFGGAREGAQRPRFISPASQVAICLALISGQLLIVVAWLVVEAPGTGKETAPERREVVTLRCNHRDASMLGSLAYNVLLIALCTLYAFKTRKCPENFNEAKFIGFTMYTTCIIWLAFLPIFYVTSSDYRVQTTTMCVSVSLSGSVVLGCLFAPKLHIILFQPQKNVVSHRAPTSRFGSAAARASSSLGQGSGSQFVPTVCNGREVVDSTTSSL
Experimental: Example 127: Human mGluR2 and mGluR3 Evaluation Using Ca^++ Functional Assay
Examples of the present invention were tested successively for their agonist and negative allosteric modulator activities on human mGluR2 (hmGluR2) and mGluR3 (hmGluR3) transiently over-expressed in HEK-293 cells.
Cell Culture and Transfection
HEK-293 cells are maintained in Modified Eagle's Medium supplemented with 10% Foetal Calf Serum, 1% Penicillin/Streptomycin and 1% non-essential amino acids at 37° C./5% CO2.
Cells are co-transfected by electroporation with four DNA plasmids encoding hmGluR2 or hmGluR3, a chimeric G protein allowing redirection of the activation signal to intracellular calcium pathway (Brabet I et al., Neuropharmacology 37(8), 1043-51, 1998), and two glutamate transporters minimizing receptor desensitization by endogenous glutamate. After transfection, cells are cultured for 24 h at 37° C./5% CO2.
Calcium Assay IC50 Determination
Receptor activity is detected by changes in intracellular calcium measured using the fluorescent Ca^2+ sensitive dye, Fluo4AM (Molecular Probes).
On the day of the assay, culture medium is aspirated and replaced during 3 hours by medium without serum supplemented with 1% Glutamax, 1% Penicillin/Streptomycin and 1% non-essential amino acids. Then, cells are washed with freshly prepared buffer B (HBSS 1×(PAA), Hepes 20 mM, MgSO4-7H2O 1 mM, Na2CO3 3.3 mM, CaCl2-2H2O 1.3 mM, 0.1% BSA, Probenecid 2.5 mM) and loaded at 37° C. in 5% CO2 for 1.5 hours with buffer B containing 1 μM Fluo4AM, 0.1 mg/mL Pluronic Acid, 7 μg/mL Glutamate Pyruvate Transaminase and 2 mM sodium pyruvate. Afterwards cells are washed twice with buffer B. Then cells are detached using StemPro Accutase (Fischer Scientific), resuspended in buffer B and seeded in 384 well plate at a density of 30,000 cells per well. Addition of compounds and intracellular Ca^2+ measurements (excitation 485 nm, emission 525 nm) are performed by the fluorescence microplate reader FLIPRTetra (Molecular Devices).
Agonist and negative allosteric modulator activities of compounds are consecutively evaluated on the same cell plate. […] Then, cells are stimulated by an EC80 glutamate concentration and fluorescence is recorded for additional 3 minutes. EC80 glutamate concentration is the concentration giving 80% of the maximal glutamate response. Agonist or negative allosteric modulator activity(ies) are evaluated in comparison to basal signals evoked by buffer B or EC80 glutamate alone, respectively.
For IC50 determination, a dose-response test is performed using 20 concentrations (ranging over 6 logs) of each compound. Dose-response curves are fitted using the sigmoidal dose-response (variable slope) analysis in GraphPad Prism program (Graph Pad Inc) and IC50 of negative allosteric modulator activity is calculated. Dose-response experiments are performed in duplicate, two times independently.

Cn1c(=O)c2ccccc2n2nc(-c3ccnc(OCC(C)(F)F)c3)cc12 [Example 23, 2-[2-(2,2-Difluoro-propoxy)-pyridin-4-yl]-4-methyl-4H-pyrazolo[1,5-a]quinazolin-5-one]
IC50 (human mGluR2 (hmGluR2)): < 1 µM | melting point: 189 to 191 °C

Cn1c(=O)c2ccccc2n2nc(-c3ccnc(OCC(F)(F)C(F)(F)F)c3)cc12 [Example 24, 4-Methyl-2-[2-(2,2,3,3,3-pentafluoro-propoxy)-pyridin-4-yl]-4H-pyrazolo[1,5-a]quinazolin-5-one]
IC50 (human mGluR2 (hmGluR2)): < 1 µM | melting point: 150 to 155 °C

Cn1c(=O)c2ccccc2n2nc(-c3ccnc(OC(C(F)(F)F)C(F)(F)F)c3)cc12 [Example 25, 4-Methyl-2-[2-(2,2,2-trifluoro-1-trifluoromethyl-ethoxy)-pyridin-4-yl]-4H-pyrazolo[1,5-a]quinazolin-5-one]
IC50 (human mGluR2 (hmGluR2)): < 1 µM | melting point: 188 to 194 °C

Cn1c(=O)c2ccccc2n2nc(-c3ccnc(C(F)(F)F)c3)cc12 [Example 26, 4-Methyl-2-(2-trifluoromethyl-pyridin-4-yl)-4H-pyrazolo[1,5-a]quinazolin-5-one]
IC50 (human mGluR2 (hmGluR2)): < 1 µM | melting point: 232 to 244 °C

[2H]C([2H])([2H])n1c(=O)c2ccccc2n2nc(-c3ccnc(C(F)(F)F)c3)cc12 [Example 27, 4-Methyl(D3)-2-(2-trifluoromethyl-pyridin-4-yl)-4H-pyrazolo[1,5-a]quinazolin-5-one]
IC50 (human mGluR2 (hmGluR2)): < 1 µM | melting point: 232 to 237 °C

CCn1c(=O)c2ccccc2n2nc(-c3ccnc(C(F)(F)F)c3)cc12 [Example 28, 4-Ethyl-2-(2-trifluoromethyl-pyridin-4-yl)-4H-pyrazolo[1,5-a]quinazolin-5-one]
IC50 (human mGluR2 (hmGluR2)): < 1 µM | melting point: 214 to 220 °C

Cn1c(=O)c2ccccc2n2nc(-c3ccnc(C(F)F)c3)cc12 [Example 31, 4-Methyl-2-(2-difluoromethyl-pyridin-4-yl)-4H-pyrazolo[1,5-a]quinazolin-5-one]
IC50 (human mGluR2 (hmGluR2)): < 1 µM | melting point: 192 to 196 °C

Cn1c(=O)c2ccccc2n2nc(-c3ccnc(C(C)(F)F)c3)cc12 [Example 32, 2-[2-(1,1-Difluoro-ethyl)-pyridin-4-yl]-4-methyl-4H-pyrazolo[1,5-a]quinazolin-5-one]
IC50 (human mGluR2 (hmGluR2)): < 1 µM | melting point: 196 to 207 °C

[2H]C([2H])([2H])n1c(=O)c2ccccc2n2nc(-c3ccnc(C(C)(F)F)c3)cc12 [Example 33, 2-[2-(1,1-Difluoro-ethyl)-pyridin-4-yl]-4-methyl(D3)-4H-pyrazolo[1,5-a]quinazolin-5-one]
IC50 (human mGluR2 (hmGluR2)): < 1 µM | melting point: 198 to 205 °C

Cc1ccc2c(c1)c(=O)n(C)c1cc(-c3ccnc(C(F)(F)F)c3)nn21 [Example 34]
IC50 (human mGluR2 (hmGluR2)): < 1 µM | melting point: 215 to 218 °C

COc1ccc2c(c1)c(=O)n(C)c1cc(-c3ccnc(C(F)(F)F)c3)nn21 [Example 36]
IC50 (human mGluR2 (hmGluR2)): < 1 µM | melting point: 201 to 205 °C

Cn1c(=O)c2cc(F)ccc2n2nc(-c3ccnc(C(F)(F)F)c3)cc12 [Example 38]
IC50 (human mGluR2 (hmGluR2)): < 1 µM | melting point: > 250 °C

CNc1ccc2c(c1)c(=O)n(C)c1cc(-c3ccnc(C(F)(F)F)c3)nn21 [Example 40, 4-Methyl-7-methylamino-2-(2-trifluoromethyl-pyridin-4-yl)-4H-pyrazolo[1,5-a]quinazolin-5-one]
IC50 (human mGluR2 (hmGluR2)): < 1 µM | melting point: > 250 °C

[2H]C([2H])([2H])Nc1ccc2c(c1)c(=O)n(C)c1cc(-c3ccnc(C(F)(F)F)c3)nn21 [Example 41, 4-Methyl-7-methyl(D3)amino-2-(2-trifluoromethyl-pyridin-4-yl)-4H-pyrazolo[1,5-a]quinazolin-5-one]
IC50 (human mGluR2 (hmGluR2)): < 1 µM | melting point: > 250 °C

CN(C)c1ccc2c(c1)c(=O)n(C)c1cc(-c3ccnc(C(F)(F)F)c3)nn21 [Example 44, 7-Dimethylamino-4-methyl-2-(2-trifluoromethyl-pyridin-4-yl)-4H-pyrazolo[1,5-a]quinazolin-5-one]
IC50 (human mGluR2 (hmGluR2)): < 1 µM | melting point: > 250 °C

CCNc1ccc2c(c1)c(=O)n(C)c1cc(-c3ccnc(C(F)(F)F)c3)nn21 [Example 45, 7-Ethylamino-4-methyl-2-(2-trifluoromethyl-pyridin-4-yl)-4H-pyrazolo[1,5-a]quinazolin-5-one]
IC50 (human mGluR2 (hmGluR2)): < 1 µM | melting point: 239 to 242 °C

Cn1c(=O)c2cc(O)ccc2n2nc(-c3ccnc(C(F)(F)F)c3)cc12 [Example 48, 7-Hydroxy-4-methyl-2-(2-trifluoromethyl-pyridin-4-yl)-4H-pyrazolo[1,5-a]quinazolin-5-one]
IC50 (human mGluR2 (hmGluR2)): < 1 µM | melting point: > 250 °C

CCOc1ccc2c(c1)c(=O)n(C)c1cc(-c3ccnc(C(F)(F)F)c3)nn21 [Example 49, 7-Ethoxy-4-methyl-2-(2-trifluoromethyl-pyridin-4-yl)-4H-pyrazolo[1,5-a]quinazolin-5-one]
IC50 (human mGluR2 (hmGluR2)): < 1 µM | melting point: 152 to 158 °C

Cn1c(=O)c2ccc(F)cc2n2nc(-c3ccnc(C(F)(F)F)c3)cc12 [Example 55, 8-Fluoro-4-methyl-2-(2-trifluoromethyl-pyridin-4-yl)-4H-pyrazolo[1,5-a]quinazolin-5-one]
IC50 (human mGluR2 (hmGluR2)): < 1 µM | melting point: > 250 °C

CNc1ccc2c(=O)n(C)c3cc(-c4ccnc(C(F)(F)F)c4)nn3c2c1 [Example 61, 4-Methyl-8-methylamino-2-(2-trifluoromethyl-pyridin-4-yl)-4H-pyrazolo[1,5-a]quinazolin-5-one]
IC50 (human mGluR2 (hmGluR2)): < 1 µM | melting point: > 250 °C

Cn1c(=O)c2ccc(N3CCC(O)CC3)cc2n2nc(-c3ccnc(C(F)(F)F)c3)cc12 [Example 63, 8-(4-Hydroxy-piperidin-1-yl)-4-methyl-2-(2-trifluoromethyl-pyridin-4-yl)-4H-pyrazolo[1,5-a]quinazolin-5-one]
IC50 (human mGluR2 (hmGluR2)): < 1 µM | melting point: 112 to 117 °C

CN(C)c1ccc2c(=O)n(C)c3cc(-c4ccnc(C(F)(F)F)c4)nn3c2c1 [Example 64, 8-Dimethylamino-4-methyl-2-(2-trifluoromethyl-pyridin-4-yl)-4H-pyrazolo[1,5-a]quinazolin-5-one]
IC50 (human mGluR2 (hmGluR2)): < 1 µM | melting point: > 250 °C

Cn1c(=O)c2ccc(N3CC(O)C3)cc2n2nc(-c3ccnc(C(F)(F)F)c3)cc12 [Example 68, 8-(3-Hydroxy-azetidin-1-yl)-4-methyl-2-(2-trifluoromethyl-pyridin-4-yl)-4H-pyrazolo[1,5-a]quinazolin-5-one]
IC50 (human mGluR2 (hmGluR2)): < 1 µM | melting point: > 250 °C

Cn1c(=O)c2ccc(N3CCC(O)C3)cc2n2nc(-c3ccnc(C(F)(F)F)c3)cc12 (centres unmarked) [Example 70, 8-(3-Hydroxy-pyrrolidin-1-yl)-4-methyl-2-(2-trifluoromethyl-pyridin-4-yl)-4H-pyrazolo[1,5-a]quinazolin-5-one]
IC50 (human mGluR2 (hmGluR2)): < 1 µM | melting point: > 250 °C

Cn1c(=O)c2ccc(C(N)=O)cc2n2nc(-c3ccnc(C(F)(F)F)c3)cc12 [Example 77, 4-Methyl-5-oxo-2-(2-trifluoromethyl-pyridin-4-yl)-4,5-dihydro-pyrazolo[1,5-a]quinazoline-8-carboxylic Acid Amide]
IC50 (human mGluR2 (hmGluR2)): < 1 µM | melting point: > 250 °C
